Test results reported in EPA's ToxValDB 9.5.
Values joined by “and” are separate entries in the source; they are usually repeats but may differ in a detail not shown here. Identical values can stand only once.

Assays:
Cavia porcellus = settings: acute; Inhalation; Guinea Pig
Cavia sp. = settings: acute; Inhalation; Harley
Mus musculus [1] = settings: for LD50 / LC50: acute; for NOAEL: duration: 10 days, oral, gavage, NMRI
Oryctolagus sp. = settings: for LD50: acute
Rattus norvegicus [2] = settings: for LC50 / LD50: acute
Mus musculus [3] = settings: duration: 13 weeks, oral, M/F, CD1, Hepatotoxic lesions (males)
Homo sapiens [4] = settings: clinical; oral; M/F; decreased erythrocyte cu, zn-superoxide dismutase (esod) activity in healthy adult male and female volunteers
Homo sapiens [5] = settings: clinical, duration: 10 weeks, oral, F, hematological
Homo sapiens [6] = settings: clinical; duration: 10 weeks; oral; diet; Blood: Decreased blood enzyme
Homo sapiens [7] = settings: clinical; oral; M/F; No significant adverse effects
Rattus norvegicus [8] = assay: LC50; settings: acute; oral; gavage
Anas platyrhynchos = settings: oral
Megascops sp. = settings: oral
Nycticorax nycticorax = settings: oral
Canidae [9] = settings: repeat dose other; oral; Dog Other
Rattus norvegicus [10] = settings: repeat dose other; oral
Rattus norvegicus [11] = settings: chronic, M/F, liver toxicity (fatty change)
Rattus norvegicus [12] = settings: chronic; duration: 2 years; oral; drinking water; Liver: Lesions
Canidae [13] = settings: subchronic; duration: 3 months; oral; diet; Beagle
Cricetulus sp. = settings: acute; oral; Chinese
Rattus norvegicus [14] = settings: short-term; duration: 28 days; oral; gavage; M/F; Sprague-Dawley; Urinalysis: N/A(measured only 16h volume) + Absolute Organ Weight: Liver increase + Relative Organ Weight: Liver increase + Necropsy: Kidney…
[15] = subchronic, duration: 3 months, oral, diet
[16] = reproduction developmental, duration: 12 days, oral, gavage, F, New Zealand
[17] = developmental, duration: 10 days, oral, gavage, Sprague-Dawley
[18] = reproduction developmental, duration: 10 days, oral, gavage, F, Sprague-Dawley
[19] = short-term, duration: 28 days, oral, diet, Sprague-Dawley
[20] = subchronic, duration: 90 days, oral, diet, Sprague-Dawley

Question: Which LD50 (Cavia porcellus) does the source give for CCC(C)(CCC(C)C)C(=O)O (stereo not drawn) [Neodecanoic acid] here?
Answer: Its LD50 is over 511 mg/m3.

Question: What about the LC50 (Cavia sp.) of the same molecule?
Answer: Its LC50 is over 511 mg/m3.

Question: What about the LD50 (Cavia sp.) of the same molecule?
Answer: Its LD50 is over 511 mg/m3.

Question: What about the LD50 (Mus musculus [1]; Inhalation, Swiss) of the same molecule?
Answer: The LD50 was over 511 mg/m3.

Question: What about the LC50 (Mus musculus [1]; Inhalation, Swiss albino) of the same molecule?
Answer: The LC50 was over 511 mg/m3.

Question: What about the LC50 (Mus musculus [1]; inhalation, Swiss) of the same molecule?
Answer: The LC50 was over 3 µg/mL.

Question: What about the LD50 (Mus musculus [1]; inhalation, Swiss) of the same molecule?
Answer: Its LD50 is over 3 mg/L.

Question: And the LD50 (Oryctolagus sp.; dermal)?
Answer: The LD50 was over 3160 mg/kg.

Question: What about the LD50 (Oryctolagus sp.; dermal, occlusive) of the same molecule?
Answer: The LD50 was over 3160 mg/kg.

Question: And the NOAEL (Oryctolagus sp.; repeat dose other, dermal, M)?
Answer: The NOAEL was 2280 mg/kg-day.

Question: What about the LC50 (Rattus norvegicus [2]; Inhalation, Wistar) of the same molecule?
Answer: Its LC50 is over 511 mg/m3.

Question: What about the LD50 (Rattus norvegicus [2]; Inhalation, Wistar) of the same molecule?
Answer: The LD50 was over 511 mg/m3.

Question: What about the LC50 (Rattus norvegicus [2]; inhalation, Wistar) of the same molecule?
Answer: Its LC50 is over 3 µg/mL.

Question: And the LD50 (Rattus norvegicus [2]; inhalation, Wistar)?
Answer: Its LD50 is over 3 mg/L.

Question: What about the NOAEL (Rattus norvegicus [2]; reproduction developmental, oral, diet, Sprague-Dawley, generation: F0) of the same molecule?
Answer: Its NOAEL is 1500 ppm.

Question: And the NOAEL (Rattus norvegicus [2]; reproduction developmental, oral, diet, Sprague-Dawley, generation: F1)?
Answer: The NOAEL was 1500 ppm.

Question: And the NOAEL (Rattus norvegicus [2]; reproduction developmental, oral, diet, Sprague-Dawley, generation: F2)?
Answer: Its NOAEL is 1500 ppm.

Question: What about the LOAEL (Rattus norvegicus [2]; [15]) of the same molecule?
Answer: Its LOAEL is 144 mg/kg-day.

Question: What about the NOAEL (Rattus norvegicus [2]; [15]) of the same molecule?
Answer: Its NOAEL is 48 mg/kg-day.

Question: Which NOEL (Mus musculus [3]; feed) does the source give for CC1CCc2cc(F)cc3c(=O)c(C(=O)O)cn1c23 (stereo not drawn) [Flumequine] here?
Answer: Its NOEL is 25 mg/kg-day.

Question: What about the NOEL (Mus musculus [3]; subchronic, diet) of the same molecule?
Answer: The NOEL was 25 mg/kg-day.

Question: What does the source list for [Zn] [Zinc]?
Answer: LOAEL (Homo sapiens [4]): 0.91 mg/kg-day; NOAEL (Homo sapiens [5]): 0.83 mg/kg-day; NOAEL (Homo sapiens [5]; capsule): 0.83 mg/kg-day; LOAEL (Homo sapiens [6]): 1 mg/kg-day; NOAEL (Homo sapiens [7]): 220 mg/day and 600 mg/day

Question: Which results are given for O=C1c2c(Br)c(Br)c(Br)c(Br)c2C(=O)N1CCN1C(=O)c2c(Br)c(Br)c(Br)c(Br)c2C1=O [1,2-Bis(tetrabromophthalimido)ethane]?
Answer: LOAEL (Oryctolagus sp.; [16]): < 1000 mg/kg-day; NOAEL (Oryctolagus sp.; [16]): ≥ 1000 mg/kg-day; NOAEL (Rattus norvegicus [2]; [17]): ≥ 1000 mg/kg-day; NOAEL (Rattus norvegicus [2]; [18]): ≥ 1000 mg/kg-day; LOAEL (% diet) (Rattus norvegicus [2]; [19]): > 1; NOAEL (% diet) (Rattus norvegicus [2]; [19]): ≥ 1; LOAEL (Rattus norvegicus [2]; [20]): ≥ 1000 mg/kg-day; NOAEL (Rattus norvegicus [2]; [20]): ≥ 1000 mg/kg-day; NOAEL (% diet) (Rattus norvegicus [2]; [20]): 1; LD50 (Rattus norvegicus [8]): > 7500 mg/kg

Question: For C[Se]CCC(N)C(=O)O (stereo not drawn) [Selenomethionine], which LOAEL (Anas platyrhynchos) is on record?
Answer: Its LOAEL is 0.8 mg/kg-day.

Question: And the NOAEL (Anas platyrhynchos)?
Answer: The NOAEL was 0.4 mg/kg-day.

Question: What about the LOAEL (Megascops sp.) of the same molecule?
Answer: Its LOAEL is 1.5 mg/kg-day.

Question: What about the NOAEL (Megascops sp.) of the same molecule?
Answer: Its NOAEL is 0.44 mg/kg-day.

Question: And the NOAEL (Nycticorax nycticorax)?
Answer: The NOAEL was 1.8 mg/kg-day.

Question: C=C(Cl)Cl [1,1-Dichloroethylene] was tested. Which NOAEL (Canidae [9]) did it give?
Answer: Its NOAEL is 2.5 mg/kg-day.

Question: And the NOAEL (Rattus norvegicus [10])?
Answer: The NOAEL was 30 mg/kg-day.

Question: And the LOAEL (Rattus norvegicus [11]; inhalation)?
Answer: The LOAEL was 297 mg/m3.

Question: And the NOAEL (Rattus norvegicus [11]; inhalation)?
Answer: Its NOAEL is 99.1 mg/m3.

Question: What about the LOAEL (Rattus norvegicus [11]; oral, drinking water) of the same molecule?
Answer: Its LOAEL is 14 mg/kg-day.

Question: And the NOAEL (Rattus norvegicus [11]; oral, drinking water)?
Answer: The NOAEL was 9 mg/kg-day.

Question: And the LOAEL (Rattus norvegicus [12])?
Answer: Its LOAEL is 9 mg/kg-day.

Question: What does the source list for CCCCCCCCCCCCCCCCCCOC(=O)CCc1cc(C(C)(C)C)c(O)c(C(C)(C)C)c1 [Octadecyl 3-(3,5-di-tert-butyl-4-hydroxyphenyl)propionate]?
Answer: NOAEL (Canidae [13]): ≥ 31.5 mg/kg-day and ≤ 34.5 mg/kg-day; LD50 (Cricetulus sp.): > 6000 mg/kg; NOAEL (Mus musculus [1]; developmental): > 1000 mg/kg-day; NOAEL (Mus musculus [1]; reproduction developmental, F): 500 mg/kg-day; LD50 (Oryctolagus sp.; dermal): > 2000 mg/kg; LC50 (Rattus norvegicus [2]; inhalation): > 1.8 µg/mL; LC50 (Rattus norvegicus [2]; inhalation, particle): > 1.8 µg/mL; LD50 (Rattus norvegicus [2]; injection, Intraperitoneal): > 1000 mg/kg; LD50 (Rattus norvegicus [2]; injection, intraperitoneal): > 1000 mg/kg; LD50 (Rattus norvegicus [2]; oral): > 5000 mg/kg; NOAEL (Rattus norvegicus [2]; chronic, duration: 104 weeks, oral, diet, Cfy): 39 mg/kg-day; NOAEL (Rattus norvegicus [2]; [17]): > 1000 mg/kg-day; LOAEL (Rattus norvegicus [2]; developmental, oral, diet): 500 ppm; NOAEL (Rattus norvegicus [2]; reproduction developmental, duration: 10 months, oral, diet, COBS(R)CD(R), generation: F0): 1500 ppm; NOAEL (Rattus norvegicus [2]; reproduction developmental, duration: 10 months, oral, diet, COBS(R)CD(R), generation: F1): < 500 ppm; NOAEL (Rattus norvegicus [2]; reproduction developmental, duration: 10 months, oral, diet, COBS(R)CD(R), generation: F2): < 500 ppm; NOAEL (Rattus norvegicus [2]; [18]): 150 mg/kg-day; NOAEL (Rattus norvegicus [2]; reproduction developmental, duration: 10 days, oral, gavage, generation: F0): 150 mg/kg-day; NOAEL (Rattus norvegicus [2]; reproduction developmental, oral, diet, F): 1500 ppm; NOAEL (Rattus norvegicus [2]; reproduction developmental, oral, diet, generation: F0): 1500 ppm; NOAEL (Rattus norvegicus [2]; short-term, duration: 21 days, inhalation, RAI f (SPF)): > 0.543 mg/L; NOAEL (Rattus norvegicus [2]; short-term, duration: 28 days, oral, diet, F): 1000 mg/kg-day; NOAEL (Rattus norvegicus [2]; short-term, duration: 28 days, oral, diet, M): 100 mg/kg-day; NOAEL (Rattus norvegicus [2]; short-term, duration: 28 days, oral, gavage, Sprague-Dawley): 30 mg/kg-day; NOAEL (Rattus norvegicus [14]): 30 mg/kg-day
